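Interpolation was linear, between the two tested concentrations surrounding the appropriate level; five concentrations were tested over 48 hours in 96-well plates. Here, GI50 denotes the concentration required for 50% inhibition of growth.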 Active and inactive are the calls of the source. No stated cut-off is given here; in the data, active = GI50 up to about 1.1 µM and inactive = higher.
Legend:
Assay in all cases: NCI-60 cell line screen, 48 h
SNB-75 = tested on: SNB-75
HT-29 = tested on: HT-29
LOX IMVI = tested on: LOX IMVI
RXF 393 = tested on: RXF 393
COLO 205 = tested on: COLO 205
SK-MEL-28 = tested on: SK-MEL-28
OVCAR-3 = tested on: OVCAR-3
PC-3 = tested on: PC-3
HOP-92 = tested on: HOP-92
NCI-H460 = tested on: NCI-H460
ACHN = tested on: ACHN
OVCAR-4 = tested on: OVCAR-4
MOLT-4 = tested on: MOLT-4
Malme-3M = tested on: Malme-3M
DMS-273 = tested on: DMS-273
A498 = tested on: A498
HOP-18 = tested on: HOP-18
NCI-H226 = tested on: NCI-H226
BT-549 = tested on: BT-549
LXFL 529 = tested on: LXFL 529

Measured: GI50

CCN1c2ccccc2-n2c(C)nnc2-c2c(-c3ccccc3)n[nH]c21
inactive: SNB-75 67 µM | HT-29 24.5 µM | LOX IMVI 23.1 µM | RXF 393 44.5 µM | COLO 205 32.4 µM | SK-MEL-28 30.5 µM | OVCAR-3 36.4 µM | PC-3 30.4 µM | HOP-92 50.7 µM | NCI-H460 27.8 µM | ACHN 14.3 µM | OVCAR-4 22 µM | MOLT-4 18.2 µM

Cc1cc(NC(=S)Nc2ccccc2)c(NC(=S)Nc2ccccc2)cc1C
inactive: SNB-75 27 µM | Malme-3M 37.8 µM | HT-29 36.6 µM | DMS-273 17 µM | LOX IMVI 39.4 µM | RXF 393 > 46.8 µM | COLO 205 26.1 µM | A498 36.1 µM | SK-MEL-28 38.8 µM | OVCAR-3 21.1 µM | HOP-18 43.2 µM | NCI-H226 47.6 µM | HOP-92 41.9 µM | NCI-H460 12.9 µM | OVCAR-4 32.3 µM | MOLT-4 12.8 µM

CC(=O)OC1COC(N2c3ccccc3[C@@H]3CCc4c([nH]c5ccccc45)[C@@H]32)C(OC(C)=O)C1OC(C)=O.CC(=O)OC1COC(N2c3ccccc3[C@H]3CCc4c([nH]c5ccccc45)[C@H]32)C(OC(C)=O)C1OC(C)=O (some centres not stated)
inactive: SNB-75 11.4 µM | Malme-3M > 100 µM | HT-29 62.2 µM | COLO 205 19.2 µM | A498 17.7 µM | SK-MEL-28 > 100 µM | BT-549 56.9 µM | OVCAR-3 26.1 µM | PC-3 16.2 µM | HOP-92 57.7 µM | NCI-H460 40.6 µM | OVCAR-4 71.8 µM | MOLT-4 5.79 µM

CC1=Nc2c(N)nc(N)nc2N(C)C1
inactive: SNB-75 > 100 µM | Malme-3M > 100 µM | RXF 393 > 100 µM | COLO 205 > 100 µM | SK-MEL-28 > 100 µM | BT-549 > 100 µM | OVCAR-3 > 100 µM | PC-3 > 100 µM | NCI-H226 > 100 µM | NCI-H460 > 100 µM | ACHN > 100 µM | MOLT-4 > 100 µM

CC(Sc1ccccc1)C(CO)(CO)[N+](=O)[O-] (configuration not stated)
inactive: SNB-75 20.5 µM | Malme-3M 18.9 µM | HT-29 16.3 µM | DMS-273 16.7 µM | LOX IMVI 7.85 µM | LXFL 529 13.7 µM | RXF 393 16.4 µM | OVCAR-3 15.2 µM | HOP-18 21.9 µM | NCI-H226 16.5 µM | NCI-H460 22.8 µM | ACHN 16.9 µM | OVCAR-4 17.8 µM | MOLT-4 3.64 µM

CCC1C(C#N)=C(O)NC(O)=C1C#N
inactive: SNB-75 > 100 µM | Malme-3M > 100 µM | HT-29 > 100 µM | DMS-273 > 100 µM | LOX IMVI > 100 µM | LXFL 529 > 100 µM | RXF 393 > 100 µM | COLO 205 > 100 µM | A498 > 100 µM | SK-MEL-28 > 100 µM | OVCAR-3 > 100 µM | HOP-18 > 100 µM | NCI-H226 > 100 µM | HOP-92 > 100 µM | NCI-H460 > 100 µM | ACHN > 100 µM | OVCAR-4 > 100 µM

CCP(=O)(CC)C(Cl)(Cl)C(O)C(Cl)(Cl)Cl (configuration not stated)
inactive: SNB-75 > 100 µM | HT-29 > 100 µM | LOX IMVI > 100 µM | COLO 205 > 100 µM | SK-MEL-28 > 100 µM | OVCAR-3 > 100 µM | PC-3 > 100 µM | NCI-H226 > 100 µM | HOP-92 > 100 µM | NCI-H460 > 100 µM | ACHN > 100 µM | OVCAR-4 > 100 µM | MOLT-4 > 100 µM

O=C(CCN1CCOCC1)/C(=C/c1ccccc1)c1ccccc1
inactive: SNB-75 9.14 µM | Malme-3M 2.24 µM | HT-29 4.49 µM | DMS-273 6.28 µM | LOX IMVI 2.61 µM | RXF 393 1.57 µM | COLO 205 3.89 µM | A498 10.1 µM | SK-MEL-28 5.37 µM | OVCAR-3 3.76 µM | HOP-18 16.7 µM | NCI-H226 7.55 µM | HOP-92 3.5 µM | NCI-H460 8.95 µM | OVCAR-4 10.3 µM | MOLT-4 2.03 µM

C=C1C(=O)OC2C[C@@]3(C)CCCC(=C)C3CC12 (some centres not stated)
inactive: SNB-75 7.23 µM | Malme-3M 3.52 µM | HT-29 7.14 µM | DMS-273 2.54 µM | LOX IMVI 1.22 µM | LXFL 529 3.2 µM | RXF 393 2.77 µM | COLO 205 2.93 µM | A498 6.89 µM | SK-MEL-28 11.7 µM | OVCAR-3 10.4 µM | HOP-18 17.5 µM | NCI-H226 12.9 µM | HOP-92 4.26 µM | NCI-H460 4.68 µM | ACHN 14 µM | OVCAR-4 13.4 µM

CCOC(=O)Cc1cc(OC)c(OC)cc1/C(Cl)=C(\C=O)c1ccc(OC)c(OC)c1
inactive: SNB-75 32.1 µM | Malme-3M 27.4 µM | HT-29 15.8 µM | DMS-273 19.5 µM | LOX IMVI 17.9 µM | RXF 393 57.8 µM | COLO 205 21.8 µM | SK-MEL-28 24.2 µM | OVCAR-3 13.8 µM | HOP-18 28.7 µM | NCI-H460 3.4 µM | ACHN 20.6 µM | OVCAR-4 18.5 µM | MOLT-4 16.9 µM
active: HOP-92 1 µM

CC(=O)c1c(-c2ccco2)c(C#N)c(=S)n(C2OC(CO)C(O)C(O)C2O)c1-c1ccccc1 (configuration not stated)
inactive: SNB-75 69.7 µM | Malme-3M 63.2 µM | HT-29 > 100 µM | LOX IMVI 36.2 µM | RXF 393 37 µM | COLO 205 > 100 µM | SK-MEL-28 38.9 µM | BT-549 > 100 µM | OVCAR-3 > 100 µM | PC-3 64.4 µM | NCI-H460 > 100 µM | ACHN > 100 µM | OVCAR-4 73.3 µM | MOLT-4 31.6 µM

COc1ccc(-c2cc(O)c3c(C)ccnc3n2)cc1
inactive: Malme-3M 10.8 µM | HT-29 4.93 µM | LOX IMVI 14.3 µM | RXF 393 19.9 µM | COLO 205 4.26 µM | A498 14.3 µM | SK-MEL-28 15.3 µM | BT-549 33.7 µM | NCI-H226 33.5 µM | ACHN 21.2 µM | OVCAR-4 24.8 µM | MOLT-4 12.1 µM

Reference: ChEMBL document CHEMBL1201862, “PubChem BioAssay data set” (2004)
